Source: patent US20050281904A1, “Kefir extract as an anti-cancer agent” (McGill University, priority 2000, published 2005)

Experiments:
[1] = tested on: MCF-7 cells; details: 1 μM; cited from earlier work
[2] = tested on: MCF-7 cells; test: Cell proliferation experiments, MCF-7 cells (cell numbers after 8 days); type: cell-based, human; details: for antiproliferative effect on MCF-7 cells (dose effect): HPLC fractions or ceramide compounds alone
Description: MCF7-E3 human breast cancer estrogen-sensitive cells were provided by Dr. D. Desaulniers of Health Canada, Ottawa. Cells were routinely propagated as a monolayer culture in Dulbcco's Modified Eale Medium (DMEM) supplemented with 10% heat-inactivated fetal bovine serum (FBS), in 75-cm^2 plastic dish at 37° C. in a humidified atmosphere with 5% CO2, and passage 3-4 days a time. A normal human mammary epithelial cell line was provided by Dr. M. Stampfer of UC Livermore Labs. Cells were routinely propagated as a monolayer culture in Mammary Epithelial Growth Media (MEGM, Clonetics, San Diego) supplemented with 10% heat-inactivated fetal bovine serum (FBS), in 75-cm^2 plastic dish at 37° C. in a humidified atmosphere with 5% CO2, and passage every week. For the experiments, both cells were harvest from the dish using 0.25% trypsin-EDTA solution.
Four kefir products (K1-K4) collected at various stages of kefir production at Liberty Brand Products, Inc. (Montreal, Canada) were used in this study. The large-scale production of kefir involves a two-step fermentation process. The first step is to prepare the cultures by incubating milk with kefir grains (2-10%) (K1) and fermented for 24 hrs. The grains are then removed by filtration and the resulting mother culture (K2) is added to pasteurized milk (K3), which is further fermented for 12 hrs and this final product (K4) is packaged for the consumer market. A pasteurized milk sample (M1) and two yogurt products; mixture of yogurt bacteria, pasteurized milk and milk powder (Y1) and the final yogurt product after 12 hrs of fermentation (Y2) were included for comparison. The yeast and bacteria in the samples were removed by centrifugation and filtration. About 35 ml each of the seven samples was centrifuged (32,000×g, 60 min, 4° C.) and the supernatant was filtered through a 0.45 μm Millipore filter followed by a 0.2 μm Millipore filter (Millipore Corporation, Bedford, USA). Extracts from two separate batches of kefir and yogurt were used.
Cells previously harvested were seeded in 24-well plates; 10,000 cells for MCF-7 per well in DMEM supplemented with 10% FBS and 5,000 cells for HMEC per well in MEGM supplemented with 10% FBS. The cells were allowed to attach for 24 hours. […] Cells were incubated at 37° C. in a humidified atmosphere with 5% CO2 for 8 days and the cell numbers in each well were counted using a Coulter Counter (Coulter Counter Corporation, USA). […]
The cell numbers expressed as percentage of control from different treatments and dose were compared using two-way ANOVA. When the interaction between treatments and dose was also significant the difference between treatment groups was determined by Tukey's HSD multiple comparison test. […]

Compound | levels of angiogenesis stimulators VEGF and cathepsin D [1] | antiproliferative effect on MCF-7 cells (dose effect) [2] | dosage showing antiproliferative effect on MCF-7 cells [2]
CCCCCCCCCCCCC/C=C/[C@@H](O)[C@H](CO)NC(=O)CCCCC [C6 ceramide] | below 50 % of the control | strong dose dependent antiproliferative effect | –
CC/C(=C(\c1ccccc1)c1ccc(OCCN(C)C)cc1)c1ccccc1 [Tamoxifen] | – | – | above 0.2 μM/L
ceramide 1-phosphate | – | did not | –
ceramide I | – | strong dose dependent antiproliferative effect | –
